Source: patent US20240261297A1, “ANTI-CDK INHIBITORS FOR CANCER TREATMENT” (St. John's Cancer Institute, priority 2021, published 2024)
Read-outs that look alike come from different tables or passages of the source. Blank lines part the entries; values can stand above or below the compound they belong to.

Experiments:
[1] = Snapshot plasma pharmacokinetics in mice; assay type: in vivo
Description: Evaluation of pharmacokinetic (PK) parameters and efficacy of I-3 in a xenograft model was carried out in mice. […] Briefly, mice were treated with 5 mg/kg of 1-3 or merioline-3. Plasma was then collected at different time points and measured for drug concentration. […] PK parameters of I-3 was also compared to a panel of CDK inhibitors (Table 13). […] Likewise, Ribociclib has a better Cmax than I-3, but it is primarily a CDK4/6 inhibitor.

[2] = biological target: CDK1/cyclin B (Homo sapiens, UniProt P06493); assay: Radioisotope-based protein kinase assay; assay type: biochemical; settings: 10 μM ATP, 3-fold dilution from 10 μM
Description: (§1) A series of test compounds were selected for initial screening against CDK isoforms. Protein kinase assays were performed with gold standard radioisotope-based assay formats to measuring enzyme activity remaining in presence and absence of inhibitor.

[3] = biological target: CDK2/cyclin E (Homo sapiens, UniProt P24941); assay: Radioisotope-based protein kinase assay; assay type: biochemical; settings: 10 μM ATP, 3-fold dilution from 10 μM
Description: as §1

[4] = tested on: PLC/PRF/5 cells; assay: Cell viability of HCC cells by CellTiter Glo assay; assay type: cell-based; settings: 72 hours
Description: FIG. 5 is a graph showing cell viability of hepatocellular carcinoma (HCC) cell lines treated with I-3 for 72 hours, assessed by CellTiter Glo assay, with the control level of cells considered 100%.
I-3 was also tested for efficacy on hepatocellular carcinoma (HCC) cell lines. Cell viability was measured by CellTiter Glo assay (FIG. 5 and Table 8).

[5] = tested on: caspase 3/7 in PLC/PRF/5 cells; assay: Caspase Glo 3/7 activity assay in PLC/PRF/5 cells; assay type: cell-based
[6] = tested on: caspase 3/7 in MDA-MB-468 cells; assay: Caspase Glo 3/7 activity assay in MDA-MB-468 cells; assay type: cell-based; settings: 24 hours
Description: Further anti-proliferative effect of 1-3 was evaluated in the TNBC cell line MDA-MB-468 based on biomarker (CDK2) inhibition. […] The mechanistic cell cycle block is aligned with biomarker. In addition, Caspase Glo 3/7 activation was tested to confirm the sub-G1 (apoptotic) arrest in cell cycle.

[7] = tested on: MCF-10A; assay: Cell viability in breast cell lines; assay type: cell-based; settings: MCF-10A, 72 hours, Table 6, read-out: Cell viability by CellTiter Glo IC50
From the text: (§2) Tables 5 and 6 show assessment of in vitro efficacy of I-3 in a panel of breast cancer cell lines.

[8] = biological target: CKD9/Cyclin H (Homo sapiens, UniProt P50750); assay: Biochemical profile against CDKs and binding partners (Table 3)
Description: as §1

[9] = tested on: MDA-MB-468; assay: Cell viability in breast cancer cell lines; assay type: cell-based; settings: MDA-MB-468, 72 hours, Table 6, read-out: Cell viability by CellTiter Glo IC50
From the text: as §2

[10] = biological target: CDK4/cyclin D1 (Homo sapiens, UniProt P11802); assay: Radioisotope-based protein kinase assay; assay type: biochemical; settings: 10 μM ATP, 3-fold dilution from 10 μM
Description: as §1

[11] = biological target: CDK2/cyclin A (Homo sapiens, UniProt P24941); assay: Radioisotope-based protein kinase assay; assay type: biochemical; settings: 10 μM ATP, 3-fold dilution from 10 μM
Description: as §1

[12] = biological target: CDK6/cyclin D1 (Homo sapiens, UniProt Q00534); assay: Radioisotope-based protein kinase assay; assay type: biochemical; settings: 10 μM ATP, 3-fold dilution from 10 μM
Description: as §1

[13] = biological target: CDK1/cyclin A (Homo sapiens, UniProt P06493); assay: Radioisotope-based protein kinase assay; assay type: biochemical; settings: 10 μM ATP, 3-fold dilution from 10 μM
Description: as §1

[14] = biological target: CDK5/p35 (Homo sapiens, UniProt Q00535); assay: Radioisotope-based protein kinase assay; assay type: biochemical; settings: Table 2
Description: as §1
The activity of compound I-3 was compared to that of a panel of CDKs and their respective binding partners (Tables 2 and 3).

[15] = biological target: CDK9/cyclin T1 (Homo sapiens, UniProt P50750); assay: Radioisotope-based protein kinase assay; assay type: biochemical; settings: 10 μM ATP, 3-fold dilution from 10 μM
Description: as §1

[16] = biological target: CDK7/cyclin H (Homo sapiens, UniProt P50613); assay: Radioisotope-based protein kinase assay; assay type: biochemical; settings: 10 μM ATP, 3-fold dilution from 10 μM
Description: as §1

[17] = PO 5 mg/kg, cassette dosing, plasma

CDK6/cyclin D1, sequence (Q00534 whole entry): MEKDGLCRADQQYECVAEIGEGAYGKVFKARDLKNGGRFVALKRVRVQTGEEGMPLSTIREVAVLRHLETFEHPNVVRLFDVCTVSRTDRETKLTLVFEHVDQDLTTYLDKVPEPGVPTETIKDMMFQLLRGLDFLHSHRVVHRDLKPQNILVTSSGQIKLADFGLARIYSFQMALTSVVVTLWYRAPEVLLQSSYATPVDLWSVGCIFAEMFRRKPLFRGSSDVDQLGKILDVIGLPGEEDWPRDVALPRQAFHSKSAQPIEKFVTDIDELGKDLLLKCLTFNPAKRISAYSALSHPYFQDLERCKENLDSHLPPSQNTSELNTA
CDK6/cyclin D1, sequence (P24385 whole entry partner): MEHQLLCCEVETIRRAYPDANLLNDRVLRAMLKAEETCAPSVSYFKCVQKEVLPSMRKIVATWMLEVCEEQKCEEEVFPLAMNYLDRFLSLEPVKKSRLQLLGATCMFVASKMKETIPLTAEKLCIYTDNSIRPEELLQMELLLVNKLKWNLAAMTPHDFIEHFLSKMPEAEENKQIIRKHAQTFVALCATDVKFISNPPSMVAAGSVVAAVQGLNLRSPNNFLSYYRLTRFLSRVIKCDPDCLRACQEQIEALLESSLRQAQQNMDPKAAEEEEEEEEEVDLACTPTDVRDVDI
CDK4/cyclin D1, sequence (P11802 whole entry): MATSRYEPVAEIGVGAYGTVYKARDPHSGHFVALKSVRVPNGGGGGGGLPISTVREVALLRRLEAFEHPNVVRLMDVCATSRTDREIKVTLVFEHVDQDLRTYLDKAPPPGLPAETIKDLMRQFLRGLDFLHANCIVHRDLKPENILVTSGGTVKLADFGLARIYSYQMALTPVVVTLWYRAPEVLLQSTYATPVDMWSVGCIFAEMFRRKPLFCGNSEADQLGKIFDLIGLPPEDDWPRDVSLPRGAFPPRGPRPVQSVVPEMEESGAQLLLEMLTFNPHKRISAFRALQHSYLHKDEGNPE
CDK4/cyclin D1, sequence (P24385 whole entry partner): as the sequence (P24385 whole entry partner) above
CDK9/cyclin T1, sequence (P50750 whole entry): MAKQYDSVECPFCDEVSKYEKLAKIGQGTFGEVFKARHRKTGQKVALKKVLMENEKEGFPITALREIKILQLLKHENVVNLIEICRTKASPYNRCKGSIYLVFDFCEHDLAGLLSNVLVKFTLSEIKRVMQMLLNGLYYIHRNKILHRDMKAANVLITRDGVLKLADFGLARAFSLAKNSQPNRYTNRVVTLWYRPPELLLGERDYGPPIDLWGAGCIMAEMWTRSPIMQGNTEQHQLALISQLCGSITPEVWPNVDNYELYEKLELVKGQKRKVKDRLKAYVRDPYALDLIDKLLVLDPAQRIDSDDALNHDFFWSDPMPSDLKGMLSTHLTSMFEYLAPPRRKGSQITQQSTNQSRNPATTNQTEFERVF
CDK9/cyclin T1, sequence (O60563 whole entry partner): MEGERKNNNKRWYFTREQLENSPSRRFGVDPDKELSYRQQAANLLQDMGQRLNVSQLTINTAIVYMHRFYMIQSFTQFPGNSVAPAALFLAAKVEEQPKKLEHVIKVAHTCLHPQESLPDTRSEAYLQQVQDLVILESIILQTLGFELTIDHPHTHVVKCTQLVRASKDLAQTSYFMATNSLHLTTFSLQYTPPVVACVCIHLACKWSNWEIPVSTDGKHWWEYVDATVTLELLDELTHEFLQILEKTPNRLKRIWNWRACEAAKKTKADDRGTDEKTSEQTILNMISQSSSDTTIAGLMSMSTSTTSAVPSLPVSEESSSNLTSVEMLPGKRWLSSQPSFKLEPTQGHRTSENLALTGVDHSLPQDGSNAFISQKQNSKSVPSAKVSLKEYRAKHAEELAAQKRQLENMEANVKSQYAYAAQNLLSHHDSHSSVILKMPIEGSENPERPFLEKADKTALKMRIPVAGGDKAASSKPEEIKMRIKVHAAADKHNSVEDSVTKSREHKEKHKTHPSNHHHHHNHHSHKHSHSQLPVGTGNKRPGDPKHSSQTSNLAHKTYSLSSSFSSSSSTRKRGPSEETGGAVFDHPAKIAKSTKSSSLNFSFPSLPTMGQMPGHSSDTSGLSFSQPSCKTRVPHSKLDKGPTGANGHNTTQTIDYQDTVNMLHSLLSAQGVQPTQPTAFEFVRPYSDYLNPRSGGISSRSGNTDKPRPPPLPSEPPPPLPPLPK
CDK1/cyclin B, sequence (P06493 whole entry, canonical isoform): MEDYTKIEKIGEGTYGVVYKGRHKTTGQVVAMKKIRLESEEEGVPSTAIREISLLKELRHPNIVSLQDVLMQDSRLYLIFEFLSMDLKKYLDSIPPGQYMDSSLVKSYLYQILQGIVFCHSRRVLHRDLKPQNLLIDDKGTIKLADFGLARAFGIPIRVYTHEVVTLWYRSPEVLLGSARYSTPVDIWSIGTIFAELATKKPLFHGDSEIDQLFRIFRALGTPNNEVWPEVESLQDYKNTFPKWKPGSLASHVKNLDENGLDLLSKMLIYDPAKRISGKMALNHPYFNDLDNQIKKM
CDK1/cyclin B, sequence (P14635 whole entry partner, canonical isoform): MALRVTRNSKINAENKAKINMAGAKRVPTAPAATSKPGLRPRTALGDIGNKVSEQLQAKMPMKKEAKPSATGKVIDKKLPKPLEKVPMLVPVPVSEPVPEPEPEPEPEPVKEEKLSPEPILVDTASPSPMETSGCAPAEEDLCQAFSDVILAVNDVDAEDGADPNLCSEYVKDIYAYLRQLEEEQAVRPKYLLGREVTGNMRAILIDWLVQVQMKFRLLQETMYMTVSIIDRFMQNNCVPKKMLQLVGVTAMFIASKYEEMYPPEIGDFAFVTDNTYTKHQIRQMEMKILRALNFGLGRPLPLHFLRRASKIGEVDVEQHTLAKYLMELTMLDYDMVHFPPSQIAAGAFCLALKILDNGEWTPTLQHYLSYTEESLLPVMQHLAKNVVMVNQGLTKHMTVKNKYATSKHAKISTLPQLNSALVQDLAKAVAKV
CKD9/Cyclin H, sequence (P50750 whole entry): as the sequence (P50750 whole entry) above
CDK5/p35, sequence (Q00535 whole entry): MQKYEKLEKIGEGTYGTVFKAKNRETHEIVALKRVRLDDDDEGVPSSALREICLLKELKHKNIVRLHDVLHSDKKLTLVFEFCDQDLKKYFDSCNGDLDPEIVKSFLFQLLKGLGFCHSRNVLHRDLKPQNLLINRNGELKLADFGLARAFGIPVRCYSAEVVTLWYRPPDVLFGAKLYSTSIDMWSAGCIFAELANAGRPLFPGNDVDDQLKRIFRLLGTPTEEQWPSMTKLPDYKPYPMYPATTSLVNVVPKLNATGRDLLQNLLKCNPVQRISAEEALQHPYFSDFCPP
CDK5/p35, sequence (Q15078 whole entry partner): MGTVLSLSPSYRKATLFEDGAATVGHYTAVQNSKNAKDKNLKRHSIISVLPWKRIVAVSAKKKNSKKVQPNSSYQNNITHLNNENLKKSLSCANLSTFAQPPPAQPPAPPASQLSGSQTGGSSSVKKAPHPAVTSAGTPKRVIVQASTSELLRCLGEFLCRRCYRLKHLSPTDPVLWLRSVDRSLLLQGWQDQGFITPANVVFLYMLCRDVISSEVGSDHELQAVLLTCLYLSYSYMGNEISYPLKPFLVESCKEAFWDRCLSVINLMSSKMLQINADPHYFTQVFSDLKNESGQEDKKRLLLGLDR
CDK7/cyclin H, sequence (P50613 whole entry): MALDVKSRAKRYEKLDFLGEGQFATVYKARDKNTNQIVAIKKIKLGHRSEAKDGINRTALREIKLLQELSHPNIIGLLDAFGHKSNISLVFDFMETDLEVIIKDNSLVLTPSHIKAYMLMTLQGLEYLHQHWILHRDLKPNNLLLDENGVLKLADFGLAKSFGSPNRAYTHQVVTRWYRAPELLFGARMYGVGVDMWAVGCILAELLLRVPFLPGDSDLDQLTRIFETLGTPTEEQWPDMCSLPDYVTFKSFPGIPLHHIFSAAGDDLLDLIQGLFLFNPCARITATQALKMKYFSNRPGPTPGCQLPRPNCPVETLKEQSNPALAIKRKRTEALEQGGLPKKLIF
CDK7/cyclin H, sequence (P51946 whole entry partner): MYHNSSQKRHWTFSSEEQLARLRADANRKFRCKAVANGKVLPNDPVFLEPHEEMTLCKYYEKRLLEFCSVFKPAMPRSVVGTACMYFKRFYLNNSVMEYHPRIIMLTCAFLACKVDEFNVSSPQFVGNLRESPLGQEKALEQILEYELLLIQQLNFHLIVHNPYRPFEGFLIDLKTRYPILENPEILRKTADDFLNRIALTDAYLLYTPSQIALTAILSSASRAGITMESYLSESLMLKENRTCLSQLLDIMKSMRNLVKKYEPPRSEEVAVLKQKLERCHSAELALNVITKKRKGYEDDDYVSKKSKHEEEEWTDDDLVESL
CDK7/cyclin H, sequence (P51948 whole entry partner): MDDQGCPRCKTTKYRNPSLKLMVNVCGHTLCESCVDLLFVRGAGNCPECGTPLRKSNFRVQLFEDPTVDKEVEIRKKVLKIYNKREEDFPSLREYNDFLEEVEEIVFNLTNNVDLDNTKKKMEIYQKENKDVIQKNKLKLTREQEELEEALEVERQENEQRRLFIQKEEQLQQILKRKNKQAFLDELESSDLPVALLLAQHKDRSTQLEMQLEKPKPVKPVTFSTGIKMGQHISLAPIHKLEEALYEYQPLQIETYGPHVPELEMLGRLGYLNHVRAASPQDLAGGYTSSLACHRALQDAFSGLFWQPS

Compound: CNC(=O)c1nn(C)c2c1C(C)(C)Cc1cnc(Nc3ccc(N4CCN(C)CC4)cc3)nc1-2 [Milciclib]
- Tmax ([1]; mouse, in vivo): 3.5 h
- AUC(0-inf) ([1]; mouse, in vivo, AUCinf): 2980 ng·h/mL
- Cmax ([1]; mouse, in vivo, Cmax): 537 ng/mL
- IC50 [2]: 398 nM
- IC50 [3]: 363 nM

Compound: C[C@@]1(O)CCC[C@H]1n1c(=O)c(C(F)F)cc2cnc(NC3CCN(S(C)(=O)=O)CC3)nc21 [PF-06873600, reference compound]
- IC50 [4]: 3480 nM
- Cmax [1, 17]: 196 ng/mL
- T1/2 [1, 17]: 2.1 h
- IC50 [5]: 3560 nM
- Caspase 3/7 activation [6]: no caspase 3/7 activation
- IC50 [6]: 5660 nM
- IC50 [7]: 660 nM
- IC50 [8]: 43 nM
- IC50 [9]: 65 nM

Compound: Merioline-3
- Cmax [1, 17]: 178 ng/mL
- AUCinf ([1]; mice, IV 5 mg/kg, plasma): 83,600 min*ng/mL
- Cmax ([1]; mice, IV 5 mg/kg, plasma): 5560 ng/mL
- T1/2 ([1]; mice, IV 5 mg/kg, plasma): 0.124 h
- Tmax ([1]; mice, IV 5 mg/kg, plasma): 0.0833 h
- AUCinf ([1]; mice, PO 5 mg/kg, plasma): 4340 ng·min/mL
- Cmax ([1]; mice, PO 5 mg/kg, plasma): 483 ng/mL
- Tmax ([1]; mice, PO 5 mg/kg, plasma): 1 h
- IC50 [14]: 3 nM
- IC50 [8]: 2 nM
- IC50 [15]: 2 nM
- IC50 [2]: 7 nM
- IC50 [10]: 182 nM
- IC50 [11]: 3 nM
- IC50 [12]: 130 nM
- IC50 [3]: 2 nM
- IC50 [13]: 5 nM

Compound: CCN1CCN(Cc2ccc(Nc3ncc(F)c(-c4cc(F)c5nc(C)n(C(C)C)c5c4)n3)nc2)CC1 [Abemaciclib]
- Tmax ([1]; mouse, in vivo): 5.5 h
- AUC(0-inf) ([1]; mouse, in vivo, AUCinf): 613 ng·h/mL
- Cmax ([1]; mouse, in vivo, Cmax): 107 ng/mL

Compound: CC(=O)c1c(C)c2cnc(Nc3ccc(N4CCNCC4)cn3)nc2n(C2CCCC2)c1=O [Palbociclib]
- AUC(0-inf) ([1]; mouse, plasma, oral, 5 mg/kg, in vivo PK comparison of CDK inhibitors, Table 13, read-out: AUCinf): 641 ng·h/mL
- Cmax ([1]; mouse, plasma, oral, 5 mg/kg, in vivo PK comparison of CDK inhibitors, Table 13, read-out: Cmax): 196 ng/mL
- Tmax ([1]; mouse, plasma, oral, 5 mg/kg, in vivo PK comparison of CDK inhibitors, Table 13, read-out: Tmax): 2.1 h

Compound: CNC(=O)c1cc(Oc2ccc(NC(=O)Nc3ccc(Cl)c(C(F)(F)F)c3)cc2)ccn1 [Sorafenib]
- IC50 ([4]; Homo sapiens): 6300 nM

Compound: CN(C)C(=O)c1cc2cnc(Nc3ccc(N4CCNCC4)cn3)nc2n1C1CCCC1 [Ribociclib]
- Tmax ([1]; mouse, in vivo): 5.7 h
- AUC(0-inf) ([1]; mouse, in vivo, AUCinf): 2780 ng·h/mL
- Cmax ([1]; mouse, in vivo, Cmax): 303 ng/mL

Compound: CC[C@H](Nc1nc(NCc2cnc(C)cc2C)c2ncn(C(C)C)c2n1)[C@@H](C)O [CYC065, reference compound]
- IC50 ([7]; Homo sapiens): 400 nM
- IC50 [2]: 578 nM
- IC50 [10]: 21 nM
- IC50 [3]: 5 nM
- IC50 ([9]; Homo sapiens): 380 nM

Second part, the compound after the results:

- IC50 [2]: 4 nM
- IC50 [10]: 259 nM
- IC50 [11]: 3 nM
- IC50 [12]: 138 nM
- IC50 [3]: 2 nM
- IC50 [13]: 3 nM
Compound: Nc1nccc(-c2c[nH]c3nccc(Oc4ccccc4)c23)n1 [I-1, 4-(4-phenoxy-1H-pyrrolo[2,3-b]pyridin-3-yl)pyrimidin-2-amine]

- IC50 [15]: 16 nM
- IC50 [16]: 43 nM
- IC50 [3]: 27 nM
Compound: Nc1nccc(-c2c[nH]c3nccc(Oc4cccc(C(F)(F)F)c4)c23)n1 [I-5, 4-(4-(3-(trifluoromethyl)phenoxy)-1H-pyrrolo[2,3-b]pyridin-3-yl)pyrimidin-2-amine]

- IC50 [2]: 16 nM
- IC50 [10]: 875 nM
- IC50 [11]: 9 nM
- IC50 [12]: 819 nM
- IC50 [3]: 8 nM
- IC50 [13]: 11 nM
Compound: Nc1nccc(-c2c[nH]c3nccc(Oc4cccc(Cl)c4)c23)n1 [I-2, 4-(4-(3-chlorophenoxy)-1H-pyrrolo[2,3-b]pyridin-3-yl)pyrimidin-2-amine]

- IC50 [2]: 7 nM
- IC50 [10]: 462 nM
- IC50 [3]: 2 nM
Compound: Nc1nccc(-c2c[nH]c3nccc(Oc4cc(F)cc(F)c4)c23)n1 [I-4, 4-(4-(3,5-difluorophenoxy)-1H-pyrrolo[2,3-b]pyridin-3-yl)pyrimidin-2-amine]

- IC50 [15]: 3 nM
- IC50 [11]: 5 nM
- IC50 [12]: 196 nM
- IC50 [13]: 4 nM
Compound: Nc1nccc(-c2c[nH]c3nccc(Oc4ccc(F)cc4)c23)n1 [I-6, 4-(4-(4-fluorophenoxy)-1H-pyrrolo[2,3-b]pyridin-3-yl)pyrimidin-2-amine]
